Where two headings read alike, the source gives them in different places.
What was measured:
A431 (ATCC: CRL-1555) = test: Test of cancer cell growth inhibition (SRB), A431; details: read-out: IC50 A431
SK-Br3 (ATCC: HTB-30) = test: Test of cancer cell growth inhibition (SRB), SK-Br3; details: read-out: IC50 SK-Br-3
[1] = EGFR overexpressed A431, 72 hours, SRB
[2] = Erb-B2 overexpressed SK-Br3, 72 hours, SRB

| Structure (SMILES) | IC50 (A431 (ATCC: CRL-1555); Homo sapiens, A-431, 72 h) | IC50 (SK-Br3 (ATCC: HTB-30); Homo sapiens, SK-BR-3, 72 h) | IC50 (A431 (ATCC: CRL-1555); [1]) | IC50 (SK-Br3 (ATCC: HTB-30); [2]) |
| --- | --- | --- | --- | --- |
| COCC(=O)N[C@@H](CCSC)C(=O)Nc1ccc2ncnc(Nc3ccc(OCc4cccc(F)c4)c(Cl)c3)c2c1 [Example 7-2, (2S)—N-{4-[3-chloro-4-(3-fluoro-benzyloxy)-phenylamino]-quinazolin-6-yl}-2-(2-methoxy-acetylamino)-4-methanesulfanyl-butyramide] |  |  | 740 nM | 261 nM |
| CSCC[C@H](NC(=O)CS(C)(=O)=O)C(=O)Nc1ccc2ncnc(Nc3ccc(OCc4cccc(F)c4)c(Cl)c3)c2c1 [Example 8, (2S)—N-{4-[3-chloro-4-(3-fluoro-benzyloxy)-phenylamino]-quinazolin-6-yl}-2-(2-methanesulfonyl-acetamino)-4-methanesulfanyl-butyramide] |  |  | 308 nM | 190 nM |
| O=C(CCc1ccccc1)NCCC(=O)Nc1ccc2ncnc(Nc3ccc(OCc4cccc(F)c4)c(Cl)c3)c2c1 [Example 23, 3-phenyl-propionylic acid (2-{4-[3-chloro-4-(3-fluoro-benzyloxy)-phenylamino]-quinazolin-6-ylcarbamoyl}-ethyl)-amide] |  |  | 316 nM | 359 nM |
| O=C(C=Cc1ccccc1)NCCC(=O)Nc1ccc2ncnc(Nc3ccc(OCc4cccc(F)c4)c(Cl)c3)c2c1 [Example 26, N-(2-{4-[3-chloro-4-(3-fluoro-benzyloxy)-phenylamino]-quinazolin-6-ylcarbamoyl}-ethyl)-3-phenyl-acrylamide] | 801 nM | 872 nM |  |  |
| O=C(CCNC(=O)c1cn[nH]c1)Nc1ccc2ncnc(Nc3ccc(OCc4cccc(F)c4)c(Cl)c3)c2c1 [Example 34, 1H-pyrazol-4-carboxylic acid (2-{4-[3-chloro-4-(3-fluoro-benzyloxy)-phenylamino]-quinazolin-6-ylcarbamoyl}-ethyl)-amide] | 896 nM | 141 nM |  |  |
| CC(CNC(=O)OC(C)(C)C)C(=O)Nc1ccc2ncnc(Nc3ccc(OCc4cccc(F)c4)c(Cl)c3)c2c1 (centres unmarked) [Example 41, (2-{4-[3-chloro-4-(3-fluoro-benzyloxy)-phenylamino]-quinazolin-6-ylcarbamoyl}-propyl)-carbamic acid t-butylester] | 936 nM | 172 nM |  |  |
| COCC(=O)Nc1ccsc1C(=O)Nc1ccc2ncnc(Nc3ccc(OCc4cccc(F)c4)c(Cl)c3)c2c1 [Example 48, 3-(2-methoxy-acetylamino)-thiophene-2-carboxylic acid {4-[3-chloro-4-(3-fluoro-benzyloxy)-phenylamino]-quinazolin-6-yl}-amide] | 828 nM | 131 nM |  |  |
| Cc1ccc(Oc2ccc(Nc3ncnc4ccc(NC(=O)CCNC(=O)CS(C)(=O)=O)cc34)cc2C)cn1 [Example 50-2, 3-(2-methanesulfonyl-acetylamino)-N-{4-[3-methyl-4-(6-methyl-pyridin-3-yloxy)-phenylamino]-quinazolin-6-yl}-propionamide] | 845 nM | 99 nM |  |  |
| CN(C)CC=CC(=O)NCCC(=O)Nc1ccc2ncnc(Nc3ccc(OCc4cccc(F)c4)c(Cl)c3)c2c1 [Example 56, 4-dimethylamino-but-2-enonylic acid (2-{4-[3-chloro-4-(3-fluoro-benzyloxy)-phenylamino]-quinazolin-6-ylcarbamoyl}-ethyl)-amide] |  |  | 613 nM | 51 nM |
| O=C(C=CCN1CCOCC1)NCCC(=O)Nc1ccc2ncnc(Nc3ccc(OCc4cccc(F)c4)c(Cl)c3)c2c1 [Example 57, 4-morpholin-4-yl-but-2-enonylic acid (2-{4-[3-chloro-4-(3-fluoro-benzyloxy)-phenylamino]-quinazolin-6-ylcarbamoyl}-ethyl)-amide] |  |  | 625 nM | 43 nM |
| CS(=O)(=O)CC(=O)NCCCC(=O)Nc1ccc2ncnc(Nc3ccc(OCc4cccc(F)c4)c(Cl)c3)c2c1 [Example 88, N-{4-[3-chloro-4-(3-fluoro-benzyloxy)-phenylamino]-quinazolin-6-yl}-4-(2-methanesulfonyl-acetylamino)-butyramide] | 732 nM | 62 nM |  |  |
| O=C(CCCNC(=O)c1cn[nH]c1)Nc1ccc2ncnc(Nc3ccc(OCc4cccc(F)c4)c(Cl)c3)c2c1 [Example 95, 1H-pyrazol-4-carboxylic acid (3-{4-[3-chloro-4-(3-fluoro-benzyloxy)-phenylamino]-quinazolin-6-ylcarbamoyl}-propyl)-amide] | 994 nM | 331 nM |  |  |

Further lines, results first:

| IC50 (A431 (ATCC: CRL-1555); Homo sapiens, A-431, 72 h) | IC50 (SK-Br3 (ATCC: HTB-30); Homo sapiens, SK-BR-3, 72 h) | IC50 (A431 (ATCC: CRL-1555); [1]) | IC50 (SK-Br3 (ATCC: HTB-30); [2]) | Structure (SMILES) |
| --- | --- | --- | --- | --- |
| 408 nM | 359 nM |  |  | CC(C)(C)OC(=O)NCC(=O)Nc1ccc2ncnc(Nc3ccc(OCc4cccc(F)c4)c(Cl)c3)c2c1 [Example 1-5, ({4-[3-chloro-4-(3-fluoro-benzyloxy)-phenylamino]-quinazolin-6-ylcarbamoyl}-methyl)-carbamic acid t-butylester] |
| 252 nM | 113 nM |  |  | COCC(=O)N[C@H](C(=O)Nc1ccc2ncnc(Nc3ccc(OCc4cccc(F)c4)c(Cl)c3)c2c1)c1ccccc1 [Example 11, (2S)—N-{4-[3-chloro-4-(3-fluoro-benzyloxy)-phenylamino]-quinazolin-6-yl}-2-(2-methoxy-acetylamino)-2-phenyl-acetamide] |
| 713 nM | 182 nM |  |  | CS(=O)(=O)CC(=O)N1CCCC1C(=O)Nc1ccc2ncnc(Nc3ccc(OCc4cccc(F)c4)c(Cl)c3)c2c1 (centres unmarked) [Example 17, 1-(2-methanesulfonyl-acetyl)-pyrrolidine-2-carboxylic acid {4-[3-chloro-4-(3-fluoro-benzyloxy)-phenylamino]-quinazolin-6-yl}-amide] |
| 335 nM | 427 nM |  |  | CC(C)(C)OC(=O)NCCC(=O)Nc1ccc2ncnc(Nc3ccc(OCc4cccc(F)c4)c(Cl)c3)c2c1 [Example 19, (2-{4-[3-chloro-4-(3-fluoro-benzyloxy)-phenylamino]-quinazolin-6-ylcarbamoyl}-ethyl)-carbamic acid t-butylester] |
| 312 nM | 163 nM |  |  | Cc1cc(C(=O)NCCC(=O)Nc2ccc3ncnc(Nc4ccc(OCc5cccc(F)c5)c(Cl)c4)c3c2)on1 [Example 32, 3-methyl-isoxazol-5-carboxylic acid (2-{4-[3-chloro-4-(3-fluoro-benzyloxy)-phenylamino]-quinazolin-6-ylcarbamoyl}-ethyl)-amide] |
| 348 nM | 131 nM |  |  | O=C(CCNC(=O)c1ccoc1)Nc1ccc2ncnc(Nc3ccc(OCc4cccc(F)c4)c(Cl)c3)c2c1 [Example 33, furan-3-carboxylic acid (2-{4-[3-chloro-4-(3-fluoro-benzyloxy)-phenylamino]-quinazolin-6-ylcarbamoyl}-ethyl)-amide] |
| 137 nM | 160 nM |  |  | O=C(CCNC(=O)C1CC1)Nc1ccc2ncnc(Nc3ccc(OCc4cccc(F)c4)c(Cl)c3)c2c1 [Example 37, cyclopropylcarboxylic acid (2-{4-[3-chloro-4-(3-fluoro-benzyloxy)-phenylamino]-quinazolin-6-ylcarbamoyl}-ethyl)-amide] |
| 390 nM | 115 nM |  |  | CC(CNC(=O)CS(C)(=O)=O)C(=O)Nc1ccc2ncnc(Nc3ccc(OCc4cccc(F)c4)c(Cl)c3)c2c1 (centres unmarked) [Example 43, N-{4-[3-chloro-4-(3-fluoro-benzyloxy)-phenylamino]-quinazolin-6-yl}-3-(2-methanesulfonyl-acetylamino)-2-methyl-propionamide] |
| 124 nM | 258 nM |  |  | CS(=O)(=O)CC(=O)NCCC(=O)Nc1ccc2ncnc(Nc3ccc(F)c(Cl)c3)c2c1 [Example 53-2, N-[4-(3-chloro-4-fluoro-phenylamino)-quinazolin-6-yl]-3-(2-methanesulfonyl-acetylamino)-propionamide] |
| 698 nM | 212 nM |  |  | CN1CCN(CC(=O)NCCC(=O)Nc2ccc3ncnc(Nc4ccc(OCc5cccc(F)c5)c(Cl)c4)c3c2)CC1 [Example 64, N-{4-[3-chloro-4-(3-fluoro-benzyloxy)-phenylamino]-quinazolin-6-yl}-3-[2-(4-methyl-piperazin-1-yl)-acetylamino]-propionamide] |
| 423 nM | 628 nM |  |  | O=C(CCCNC(=O)c1ccccc1)Nc1ccc2ncnc(Nc3ccc(OCc4cccc(F)c4)c(Cl)c3)c2c1 [Example 90, N-(3-{4-[3-chloro-4-(3-fluoro-benzyloxy)-phenylamino]-quinazolin-6-ylcarbamoyl}-propyl)-benzamide] |
| 603 nM | 445 nM |  |  | CCOC(=O)C(=O)NCCCC(=O)Nc1ccc2ncnc(Nc3ccc(OCc4cccc(F)c4)c(Cl)c3)c2c1 [Example 91, N-(3-{4-[3-chloro-4-(3-fluoro-benzyloxy)-phenylamino]-quinazolin-6-ylcarbamoyl}-propyl)-oxalamic acid ethylester] |
| 293 nM | 80 nM |  |  | O=C(CCCNC(=O)C1CC1)Nc1ccc2ncnc(Nc3ccc(OCc4cccc(F)c4)c(Cl)c3)c2c1 [Example 92, cyclopropylcarboxylic acid (3-{4-[3-chloro-4-(3-fluoro-benzyloxy)-phenylamino]-quinazolin-6-ylcarbamoyl}-propyl)-amide] |
| 245 nM | 70 nM |  |  | O=C(CCCNC(=O)c1ccoc1)Nc1ccc2ncnc(Nc3ccc(OCc4cccc(F)c4)c(Cl)c3)c2c1 [Example 94, furan-3-carboxylic acid (3-{4-[3-chloro-4-(3-fluoro-benzyloxy)-phenylamino]-quinazolin-6-ylcarbamoyl}-propyl)-amide] |
| 79 nM | 184 nM |  |  | C=CC(=O)NCCCC(=O)Nc1ccc2ncnc(Nc3ccc(F)c(Cl)c3)c2c1 [Example 98, 4-acryloylamino-N-[4-(3-chloro-4-fluoro-phenylamino)-quinazolin-6-yl]-butyramide] |
| 359 nM | 48 nM |  |  | COCCNCC(=O)NCCCC(=O)Nc1ccc2ncnc(Nc3ccc(OCc4cccc(F)c4)c(Cl)c3)c2c1 [Example 106, N-{4-[3-chloro-4-(3-fluoro-benzyloxy)-phenylamino]-quinazolin-6-yl}-4-[2-(2-methoxy-ethylamino)-acetylamino]-butyramide] |
